Measured values reported in patent US10501459B2, “Substituted imidazo[1,2-a]pyridines as bromodomain inhibitors” (NEOMED Institute, priority 2015, dated 2019).

How the values were obtained:
[1] = test system: human C-Myc gene transcription in MV-4-11 cells; assay: Transcription of human C-Myc in human leukemic MV-4-11 cells (QuantiGene 2.0); assay type: cell-based; settings: Homo sapiens, MV4-11, 4 h, inhibition of C-Myc mRNA, 4 hours treatment
Experimental: b) Transcription of Human C-Myc in Human Leukemic MV-4-11 Cells:
The effect of compounds on transcription of human C-Myc gene is monitored in human B-myelomonocytic leukemia cell line MV-4-11 (from American Type Culture Collection (ATCC), Manassas, Va., USA) using QuantiGene 2.0 assay kit (Affymetrix, Santa Clara, Calif., USA).
Typically, 8,000 MV-4-11 cells are plated in sterile 96-well plates (Costar #3598 from Fisher Scientific Canada, Ottawa, Ontario, Canada) in Iscove's medium supplemented with 10% fetal bovine serum, glutamine (2 mM), and penicillin (100 I.U.) and streptomycin (100 μg/mL) (all from Wisent Inc., St. Bruno, Quebec, Canada). Compounds are dissolved in DMSO at 30 mM. A series of 1:3 dilutions are first made in DMSO, and further […] dilutions are made in serum-containing cell culture media. The final concentration of DMSO is […] in cell culture media. After cells are treated with various concentrations of test compound for 4 hours, cells are lysed using Quantigene 2.0 sample processing kit (#QS0100). C-Myc mRNA is detected using a QuantiGene 2.0 assay kit (#QS0009) with gene-specific probe to human C-Myc (#SA-50182) following the manufacturer's recommendations. Luminescene signals are read on Flexstation II microplate reader (Molecular Devices, Sunnyvale, Calif., USA). Percentage of inhibition of C-Myc transcription is analyzed using EXCEL (2010 version).

BRD4(BD1) = target: T1, BRD4(BD1) (Homo sapiens, UniProt O60885); assay: In vitro bromodomain inhibition, BRD4(BD1) / biotinylated H4-tetraacetyl peptide AlphaLISA; assay type: binding; settings: His-tagged BRD4 BD1 200 nM, H4 peptide 200 nM, read-out: BRD4α (IC50)
T1 construct: purchased BPS Bioscience
Experimental: a) In Vitro Bromodomain Inhibition
To measure activity of bromodomain inhibitors, a His-epitope tagged BRD4 BD149-170 is purchased from BPS Bioscience. BRD4 binding and inhibition is assessed by monitoring the engagement of biotinylated H4-tetraacetyl peptide (H4K5/8/12/16; AnaSpec #64989-025) with the target using the AlphaLISA technology (Perkin-Elmer). Specifically, in a 384 well OptiPlate, BRD4(BD1) (200 nM final) is pre-incubated with either DMSO (final 1.0% DMSO) or a compound dilution series in DMSO. All reagents are diluted in assay buffer containing 50 mM HEPES (pH 7.4), 100 mM NaCl, 0.1% (w/v) BSA, and 0.05% (w/v) CHAPS. After a 30 minute incubation at room temperature, H4 peptide is added (200 nM final) and the reaction is incubated an additional 30 minutes at room temperature. Alpha streptavidin donor beads and AlphaLISA nickel chelate acceptor beads are then added to a final concentration of 10 μg/mL each. After one hour, equilibration plates are read on an Envision instrument and IC50s calculated using a four parameter non-linear curve fit.

| IC50 [1] [nM] | IC50 (BRD4(BD1)) [nM] | Structure (SMILES) |
| --- | --- | --- |
| 86.3 | 143 | Cc1cc(-c2ccc3ncc(Cc4ccc(Cl)cc4)n3c2)cn(C)c1=O [Compound 3, 5-[3-[(4-chlorophenyl)methyl]imidazo[1,2-a]pyridin-6-yl]-1,3-dimethyl-pyridin-2-one] |
| 93.9 | 113 | Cc1cc(-c2ccc3ncc(Cc4cccc(F)c4)n3c2)cn(C)c1=O [Compound 5, 5-[3-[(3-fluorophenyl)methyl]imidazo[1,2-a]pyridin-6-yl]-1,3-dimethyl-pyridin-2-one] |
| 276 | 313 | COc1ccc(Cc2cnc3ccc(-c4cc(C)c(=O)n(C)c4)cn23)cc1 [Compound 4, 5-[3-[(4-methoxyphenyl)methyl]imidazo[1,2-a]pyridin-6-yl]-1,3-dimethyl-pyridin-2-one] |

Second part, the compound before the results:

| Structure (SMILES) | IC50 [1] [nM] | IC50 (BRD4(BD1)) [nM] |
| --- | --- | --- |
| Cc1cc(-c2ccc3ncc(CN4CCCCC4)n3c2)cn(C)c1=O [Compound 8, 1,3-dimethyl-5-[3-(1-piperidylmethyl)imidazo[1,2-a]pyridin-6-yl]pyridin-2-one] | 844 | 195 |
| Cc1cc(-c2ccc3ncc(Cc4ccccc4)n3c2)cn(C)c1=O [Compound 1, 5-(3-benzylimidazo[1,2-a]pyridin-6-yl)-1,3-dimethyl-pyridin-2-one] | 58 | 122 |
| Cc1cc(-c2ccc3ncc(Cc4ccc(F)cc4)n3c2)cn(C)c1=O [Compound 2, 5-[3-[(4-fluorophenyl)methyl]imidazo[1,2-a]pyridin-6-yl]-1,3-dimethyl-pyridin-2-one] | 59.2 | 99.5 |
| Cc1cc(-c2ccc3ncc(CNc4ccccc4)n3c2)cn(C)c1=O [Compound 10, 5-[3-(anilinomethyl)imidazo[1,2-a]pyridin-6-yl]-1,3-dimethyl-pyridin-2-one] | 837 | 318 |
| Cc1cc(-c2ccc3ncc(COC4CCCC4)n3c2)cn(C)c1=O [Compound 9, 5-[3-(cyclopentoxymethyl)imidazo[1,2-a]pyridin-6-yl]-1,3-dimethyl-pyridin-2-one] | 152 | 153 |
